Results as given in ChEMBL document CHEMBL3124916, “On the histone lysine methyltransferase activity of fungal metabolite chaetocin” (J Med Chem, 2013).
The source made the active and inactive calls. The rule behind the calls is not given here.

What was measured:
[1] = target: T1, Histone-lysine N-methyltransferase EHMT2 (Homo sapiens) (UniProt Q96KQ7); assay: Inhibition of N-terminal GST-tagged recombinant human Histone-lysine N-methyltransferase G9a using S-(5'-adenosyl)-L-methionine chloride as substrate assessed as residual activity at 25 uM after 30 mins; values are per cent of control
T1 sequence (whole entry): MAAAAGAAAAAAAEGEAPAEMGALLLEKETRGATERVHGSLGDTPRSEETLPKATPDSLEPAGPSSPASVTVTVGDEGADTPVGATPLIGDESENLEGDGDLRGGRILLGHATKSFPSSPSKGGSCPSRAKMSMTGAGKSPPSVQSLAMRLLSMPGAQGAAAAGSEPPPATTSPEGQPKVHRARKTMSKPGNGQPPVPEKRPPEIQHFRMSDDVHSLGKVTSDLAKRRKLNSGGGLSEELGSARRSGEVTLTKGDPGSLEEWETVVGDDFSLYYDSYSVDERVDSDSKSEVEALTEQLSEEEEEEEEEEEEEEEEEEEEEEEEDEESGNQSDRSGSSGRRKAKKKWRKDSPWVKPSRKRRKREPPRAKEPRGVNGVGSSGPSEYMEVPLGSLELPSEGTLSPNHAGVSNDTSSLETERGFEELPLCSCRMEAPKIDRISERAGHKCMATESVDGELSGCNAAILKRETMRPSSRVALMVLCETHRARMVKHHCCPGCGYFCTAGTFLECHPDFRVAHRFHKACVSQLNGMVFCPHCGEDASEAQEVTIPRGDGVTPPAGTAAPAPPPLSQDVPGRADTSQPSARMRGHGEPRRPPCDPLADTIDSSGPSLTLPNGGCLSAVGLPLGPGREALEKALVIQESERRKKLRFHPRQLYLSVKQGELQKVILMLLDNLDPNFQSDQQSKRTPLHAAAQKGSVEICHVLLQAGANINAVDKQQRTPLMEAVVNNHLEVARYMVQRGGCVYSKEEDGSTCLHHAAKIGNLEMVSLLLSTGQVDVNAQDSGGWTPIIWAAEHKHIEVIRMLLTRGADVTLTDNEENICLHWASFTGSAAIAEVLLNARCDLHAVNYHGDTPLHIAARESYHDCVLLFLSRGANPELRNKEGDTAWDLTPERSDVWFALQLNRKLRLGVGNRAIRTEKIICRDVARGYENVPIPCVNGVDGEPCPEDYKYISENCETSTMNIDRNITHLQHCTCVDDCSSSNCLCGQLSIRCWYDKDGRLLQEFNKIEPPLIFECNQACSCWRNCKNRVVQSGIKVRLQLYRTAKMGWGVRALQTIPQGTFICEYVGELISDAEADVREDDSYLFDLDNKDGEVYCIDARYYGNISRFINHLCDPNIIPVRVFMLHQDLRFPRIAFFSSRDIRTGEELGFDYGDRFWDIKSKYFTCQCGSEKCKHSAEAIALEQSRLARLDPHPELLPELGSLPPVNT

[2] = target: T2, Histone-lysine N-methyltransferase EHMT2 (Homo sapiens, UniProt Q96KQ7); assay: Inhibition of N-terminal GST-tagged recombinant human Histone-lysine N-methyltransferase G9a using S-(5'-adenosyl)-L-methionine chloride as substrate after 30 mins
T2 sequence (Q96KQ7 whole entry): T1 sequence (whole entry)

[3] = target: T1, Histone-lysine N-methyltransferase EHMT2 (Homo sapiens); assay: Inhibition of N-terminal GST-tagged recombinant human Histone-lysine N-methyltransferase G9a using S-(5'-adenosyl)-L-methionine chloride as substrate assessed as nonspecific denaturation of enzyme at 0.05 to 25 uM preincubated for 30 mins in presence of urea and DTT
[4] = Induction of H2O2 generation in HBSS/Phenol Red buffer at 10 to 100 uM preincubated for 15 mins by HRP assay in presence of DTT; format: physicochemical; settings: 0.25 h
[5] = Inhibition of Neurospora crassa Histone H3-K9 methyltransferase dim-5
[6] = target: T1, Histone-lysine N-methyltransferase EHMT2 (Homo sapiens); assay: Reversible inhibition of N-terminal GST-tagged recombinant human Histone-lysine N-methyltransferase G9a using S-(5'-adenosyl)-L-methionine chloride as substrate assessed as enzyme recovery at 10 fold IC50 preincubated for 30 mins followed by 100 fold dilution in presence of DTT
[7] = target: T2, Histone-lysine N-methyltransferase EHMT2
Description: Competitive inhibition of N-terminal GST-tagged recombinant human Histone-lysine N-methyltransferase G9a using S-(5'-adenosyl)-L-methionine chloride as substrate preincubated for 30 mins followed by substrate addition measured after 30 mins

CN1C(=O)[C@@]23C[C@]4([C@]56C[C@@]78S[C@@](CO)(C(=O)N7[C@H]5Nc5ccccc56)N(C)C8=O)c5ccccc5N[C@@H]4N2C(=O)[C@]1(CO)S3 showed a residual activity [1] of 36% and an IC50 [2] of 10.6 µM.

In the case of Nc1ncnc2c1ncn2[C@@H]1O[C@H](CSCC[C@H](N)C(=O)O)[C@@H](O)[C@H]1O, the inhibition [3] is reported as “inactive”.

For CN1C(=O)[C@@]23C[C@]4([C@]56C[C@@]78SS[C@@](CO)(C(=O)N7[C@H]5Nc5ccccc56)N(C)C8=O)c5ccccc5N[C@@H]4N2C(=O)[C@]1(CO)SS3 [CHAETOCIN], the Activity [4] was “Not Active”, the residual activity [1] was 8% and the IC50 [5] was 3 µM. The inhibition [6] was “Active”, the inhibition [3] was “Active” and the IC50 [2] was 2.6 µM.

For O=C1[C@@H]2SS[C@@H](C(=O)N2Cc2ccccc2)N1Cc1ccccc1, the residual activity [1] was 19%, the inhibition [6] was “Active” and the IC50 [7] was 5.11 µM. It also gave an IC50 [2] of 4.9 µM.
